From article PMC10758095, “Selectively targeting BCL6 using a small molecule inhibitor is a potential therapeutic strategy for ovarian cancer” (International Journal of Biological Sciences, 2024)

Target: T1, BCL6 (Homo sapiens, UniProt P41182)
T1 construct: BTB domain
Test: SPR (also HTRF BCL6-BTB/SMRT disruption)
Assay type: binding

Kd: 2240 nM
Structure (SMILES): C[C@@H]1CN(c2ncc(F)c(Nc3ccc4oc(=O)ccc4c3)n2)C[C@H](C)N1 [WK369]
